# Measured values as given in paper PMC4457528, “Identification of Novel Small Molecule Inhibitors of Oncogenic RET Kinase” (PLoS ONE, 2015).
# Read-outs that look alike come from different tables or passages of the source.
# Experiments:
# Test in all cases: KinomeScan kinase panel, single concentration 10 µM
# Type in all cases: binding
# [1] = target: T1, KinomeScan kinase panel (Homo sapiens, UniProt O95819); conditions: MAP4K4, 10 µM; read-out: score (%)
# T1 construct: purchased DiscoveRx (KinomeScan)
# [2] = target: T2, KinomeScan kinase panel (Homo sapiens, UniProt P07947); conditions: kinase YES; 10 µM; read-out: score (%)
# T2 construct: purchased DiscoveRx (KinomeScan)
# [3] = target: T3, KinomeScan kinase panel (Homo sapiens, UniProt P09619); conditions: PDGFRB, 10 µM; read-out: score (%)
# T3 construct: purchased DiscoveRx (KinomeScan)
# [4] = target: T4, KinomeScan kinase panel (Homo sapiens, UniProt P11309); conditions: PIM1, 10 µM; read-out: score (%)
# T4 construct: purchased DiscoveRx (KinomeScan)
# [5] = target: T5, KinomeScan kinase panel (Homo sapiens, UniProt P36897); conditions: read-out: score (%)
# T5 construct: purchased DiscoveRx (KinomeScan)
# T5 sequence (P36897 34-503): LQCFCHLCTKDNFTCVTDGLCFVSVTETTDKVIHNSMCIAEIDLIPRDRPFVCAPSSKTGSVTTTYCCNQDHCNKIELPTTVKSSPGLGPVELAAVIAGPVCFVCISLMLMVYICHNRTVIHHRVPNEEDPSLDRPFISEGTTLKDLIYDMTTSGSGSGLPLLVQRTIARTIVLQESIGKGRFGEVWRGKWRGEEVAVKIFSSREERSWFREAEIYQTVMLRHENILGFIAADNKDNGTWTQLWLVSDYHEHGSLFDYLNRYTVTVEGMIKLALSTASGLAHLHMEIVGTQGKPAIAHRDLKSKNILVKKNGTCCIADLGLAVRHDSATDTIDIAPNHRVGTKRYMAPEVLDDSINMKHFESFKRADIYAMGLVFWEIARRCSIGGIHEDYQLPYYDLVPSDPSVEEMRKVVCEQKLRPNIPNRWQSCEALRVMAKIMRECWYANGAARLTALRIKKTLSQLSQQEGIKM
# [6] = target: T6, KinomeScan kinase panel (Homo sapiens, UniProt P80192); conditions: MLK1, 10 µM; read-out: score (%)
# T6 construct: purchased DiscoveRx (KinomeScan)
# [7] = target: T7, KinomeScan kinase panel (Homo sapiens, UniProt Q07912); conditions: read-out: score (%)
# T7 construct: purchased DiscoveRx (KinomeScan)
# [8] = target: T8, KinomeScan kinase panel (Homo sapiens, UniProt Q16512); conditions: PKN1, 10 µM; read-out: score (%)
# T8 construct: purchased DiscoveRx (KinomeScan)
# [9] = target: T9, KinomeScan kinase panel (Homo sapiens, UniProt Q8NEV4); conditions: MYO3A, 10 µM; read-out: score (%)
# T9 construct: purchased DiscoveRx (KinomeScan)
# [10] = target: T10, KinomeScan kinase panel (Homo sapiens, UniProt Q96D53); conditions: ADCK4, 10 µM; read-out: score (%)
# T10 construct: purchased DiscoveRx (KinomeScan)
# T10 sequence (Q96D53 1-544): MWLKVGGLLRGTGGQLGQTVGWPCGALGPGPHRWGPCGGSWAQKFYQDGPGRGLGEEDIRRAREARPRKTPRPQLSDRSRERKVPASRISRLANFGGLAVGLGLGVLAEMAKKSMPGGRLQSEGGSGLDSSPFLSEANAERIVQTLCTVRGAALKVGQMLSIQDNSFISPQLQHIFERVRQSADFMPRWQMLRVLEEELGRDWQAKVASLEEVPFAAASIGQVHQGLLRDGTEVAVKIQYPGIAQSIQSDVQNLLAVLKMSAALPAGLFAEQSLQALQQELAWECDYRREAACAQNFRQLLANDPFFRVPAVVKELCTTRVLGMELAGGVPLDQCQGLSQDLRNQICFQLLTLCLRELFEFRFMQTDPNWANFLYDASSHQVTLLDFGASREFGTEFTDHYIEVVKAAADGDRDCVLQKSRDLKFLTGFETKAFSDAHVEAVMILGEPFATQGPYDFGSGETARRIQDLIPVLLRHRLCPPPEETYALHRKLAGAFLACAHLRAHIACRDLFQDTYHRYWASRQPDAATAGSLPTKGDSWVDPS
# [11] = target: T11, KinomeScan kinase panel (Homo sapiens, UniProt Q9UQB9); conditions: AURKC, 10 µM; read-out: score (%)
# T11 construct: purchased DiscoveRx (KinomeScan)
# T11 sequence (Q9UQB9 1-309): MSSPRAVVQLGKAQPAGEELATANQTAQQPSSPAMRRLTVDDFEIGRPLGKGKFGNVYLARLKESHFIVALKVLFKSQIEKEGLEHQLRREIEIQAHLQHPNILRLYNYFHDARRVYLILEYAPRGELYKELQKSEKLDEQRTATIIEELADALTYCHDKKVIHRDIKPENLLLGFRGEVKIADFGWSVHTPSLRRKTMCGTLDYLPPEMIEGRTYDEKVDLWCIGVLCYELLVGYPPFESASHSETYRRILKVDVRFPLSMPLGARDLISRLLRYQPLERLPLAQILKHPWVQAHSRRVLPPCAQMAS
# T4 sequence (P11309 whole entry): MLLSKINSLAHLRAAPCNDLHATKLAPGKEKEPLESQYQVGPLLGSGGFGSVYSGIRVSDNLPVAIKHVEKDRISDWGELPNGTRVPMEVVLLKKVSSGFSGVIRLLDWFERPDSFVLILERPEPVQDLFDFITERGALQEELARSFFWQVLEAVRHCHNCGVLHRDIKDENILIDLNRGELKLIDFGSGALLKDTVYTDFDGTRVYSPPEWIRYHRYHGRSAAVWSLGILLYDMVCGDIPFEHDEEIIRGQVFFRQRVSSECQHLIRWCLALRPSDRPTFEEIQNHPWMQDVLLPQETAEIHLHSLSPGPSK
# T9 sequence (Q8NEV4 whole entry): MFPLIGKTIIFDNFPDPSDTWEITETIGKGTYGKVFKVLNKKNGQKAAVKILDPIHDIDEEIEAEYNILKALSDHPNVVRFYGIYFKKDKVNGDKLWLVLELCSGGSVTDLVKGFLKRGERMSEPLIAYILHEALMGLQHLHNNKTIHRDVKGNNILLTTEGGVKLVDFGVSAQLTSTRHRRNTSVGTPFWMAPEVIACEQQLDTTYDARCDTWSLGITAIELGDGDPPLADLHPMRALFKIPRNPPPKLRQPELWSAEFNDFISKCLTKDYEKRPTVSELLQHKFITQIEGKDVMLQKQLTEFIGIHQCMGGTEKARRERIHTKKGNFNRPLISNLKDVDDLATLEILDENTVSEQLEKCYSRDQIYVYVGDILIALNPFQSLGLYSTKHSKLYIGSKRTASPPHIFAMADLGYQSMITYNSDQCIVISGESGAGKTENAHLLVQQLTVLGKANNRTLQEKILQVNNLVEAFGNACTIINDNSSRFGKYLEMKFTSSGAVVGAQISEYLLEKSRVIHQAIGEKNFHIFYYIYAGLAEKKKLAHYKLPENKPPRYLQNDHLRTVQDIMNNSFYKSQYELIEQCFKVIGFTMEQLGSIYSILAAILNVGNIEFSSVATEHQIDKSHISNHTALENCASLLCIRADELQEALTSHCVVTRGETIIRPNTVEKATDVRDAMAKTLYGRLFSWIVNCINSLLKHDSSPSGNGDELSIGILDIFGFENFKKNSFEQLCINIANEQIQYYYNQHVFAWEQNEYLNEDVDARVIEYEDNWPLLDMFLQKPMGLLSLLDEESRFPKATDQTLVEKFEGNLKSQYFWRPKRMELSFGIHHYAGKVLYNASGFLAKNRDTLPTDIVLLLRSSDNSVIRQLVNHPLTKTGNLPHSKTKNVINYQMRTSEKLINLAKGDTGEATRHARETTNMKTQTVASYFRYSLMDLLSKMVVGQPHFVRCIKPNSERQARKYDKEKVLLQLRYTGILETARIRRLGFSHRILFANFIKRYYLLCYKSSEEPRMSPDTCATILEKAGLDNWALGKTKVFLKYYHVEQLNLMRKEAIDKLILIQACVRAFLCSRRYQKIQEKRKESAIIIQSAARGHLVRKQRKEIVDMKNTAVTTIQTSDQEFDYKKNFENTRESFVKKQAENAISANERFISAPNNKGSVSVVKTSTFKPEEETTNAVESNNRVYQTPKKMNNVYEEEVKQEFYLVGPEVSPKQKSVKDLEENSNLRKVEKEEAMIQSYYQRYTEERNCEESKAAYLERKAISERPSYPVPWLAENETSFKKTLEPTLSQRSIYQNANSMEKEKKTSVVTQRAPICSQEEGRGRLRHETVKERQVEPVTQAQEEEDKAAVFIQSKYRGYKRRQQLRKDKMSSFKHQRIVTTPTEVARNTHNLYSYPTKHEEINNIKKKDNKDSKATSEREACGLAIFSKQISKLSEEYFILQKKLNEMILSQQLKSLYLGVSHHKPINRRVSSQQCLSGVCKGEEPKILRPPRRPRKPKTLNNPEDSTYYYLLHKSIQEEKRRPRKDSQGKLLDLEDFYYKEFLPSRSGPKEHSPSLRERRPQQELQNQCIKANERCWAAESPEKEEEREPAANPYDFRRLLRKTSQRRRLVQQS
# T3 sequence (P09619 33-1106): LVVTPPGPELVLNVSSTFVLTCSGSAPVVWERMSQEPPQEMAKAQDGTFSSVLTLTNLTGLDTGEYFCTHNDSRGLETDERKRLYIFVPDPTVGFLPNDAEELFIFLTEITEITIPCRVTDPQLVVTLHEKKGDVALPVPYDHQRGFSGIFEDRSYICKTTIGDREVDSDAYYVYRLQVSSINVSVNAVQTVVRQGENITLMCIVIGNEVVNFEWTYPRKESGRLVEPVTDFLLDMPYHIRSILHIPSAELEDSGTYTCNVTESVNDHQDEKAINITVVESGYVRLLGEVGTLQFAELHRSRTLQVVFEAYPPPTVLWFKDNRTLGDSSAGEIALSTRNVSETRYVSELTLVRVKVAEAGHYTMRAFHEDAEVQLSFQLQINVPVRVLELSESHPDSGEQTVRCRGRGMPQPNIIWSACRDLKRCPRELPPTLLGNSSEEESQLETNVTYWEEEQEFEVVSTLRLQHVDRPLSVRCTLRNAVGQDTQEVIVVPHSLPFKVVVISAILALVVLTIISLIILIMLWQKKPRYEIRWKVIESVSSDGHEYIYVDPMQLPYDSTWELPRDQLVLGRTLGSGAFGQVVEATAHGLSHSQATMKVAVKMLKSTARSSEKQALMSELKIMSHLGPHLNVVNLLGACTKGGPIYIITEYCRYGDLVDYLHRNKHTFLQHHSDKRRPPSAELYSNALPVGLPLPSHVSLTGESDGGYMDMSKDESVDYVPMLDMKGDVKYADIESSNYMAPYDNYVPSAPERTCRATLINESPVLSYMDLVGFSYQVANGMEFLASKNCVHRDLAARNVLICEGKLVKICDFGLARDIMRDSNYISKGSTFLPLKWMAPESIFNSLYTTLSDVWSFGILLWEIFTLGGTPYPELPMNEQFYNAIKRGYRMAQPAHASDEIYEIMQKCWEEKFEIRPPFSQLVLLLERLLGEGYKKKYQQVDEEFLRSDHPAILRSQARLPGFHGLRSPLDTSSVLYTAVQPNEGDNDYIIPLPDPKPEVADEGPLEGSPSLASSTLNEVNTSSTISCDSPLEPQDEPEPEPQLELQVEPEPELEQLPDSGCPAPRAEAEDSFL
# T8 sequence (Q16512 whole entry): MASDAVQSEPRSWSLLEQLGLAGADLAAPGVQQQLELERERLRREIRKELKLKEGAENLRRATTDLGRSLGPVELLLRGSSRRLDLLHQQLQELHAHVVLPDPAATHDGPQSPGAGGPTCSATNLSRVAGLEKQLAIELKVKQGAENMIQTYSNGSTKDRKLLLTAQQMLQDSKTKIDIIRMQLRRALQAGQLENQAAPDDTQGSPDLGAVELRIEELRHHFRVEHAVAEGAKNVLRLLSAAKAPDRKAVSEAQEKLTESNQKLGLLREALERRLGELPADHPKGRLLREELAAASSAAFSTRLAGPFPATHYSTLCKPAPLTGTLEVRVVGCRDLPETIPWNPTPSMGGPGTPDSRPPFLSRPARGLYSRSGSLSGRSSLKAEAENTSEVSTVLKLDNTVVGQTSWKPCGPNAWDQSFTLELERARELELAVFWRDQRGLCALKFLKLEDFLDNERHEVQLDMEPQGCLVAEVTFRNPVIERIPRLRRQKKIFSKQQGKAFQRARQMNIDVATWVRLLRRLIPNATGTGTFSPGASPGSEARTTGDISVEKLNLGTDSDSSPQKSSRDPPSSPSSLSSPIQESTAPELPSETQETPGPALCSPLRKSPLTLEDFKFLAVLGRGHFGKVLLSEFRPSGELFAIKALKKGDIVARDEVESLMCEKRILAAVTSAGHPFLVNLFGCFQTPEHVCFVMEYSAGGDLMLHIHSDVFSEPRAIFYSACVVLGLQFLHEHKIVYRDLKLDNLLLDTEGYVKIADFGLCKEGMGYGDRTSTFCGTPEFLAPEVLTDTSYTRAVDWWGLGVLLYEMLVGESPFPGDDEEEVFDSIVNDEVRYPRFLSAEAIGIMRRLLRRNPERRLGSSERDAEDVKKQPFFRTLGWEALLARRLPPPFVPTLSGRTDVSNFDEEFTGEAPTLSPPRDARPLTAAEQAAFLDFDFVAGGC
# T6 sequence (P80192 whole entry): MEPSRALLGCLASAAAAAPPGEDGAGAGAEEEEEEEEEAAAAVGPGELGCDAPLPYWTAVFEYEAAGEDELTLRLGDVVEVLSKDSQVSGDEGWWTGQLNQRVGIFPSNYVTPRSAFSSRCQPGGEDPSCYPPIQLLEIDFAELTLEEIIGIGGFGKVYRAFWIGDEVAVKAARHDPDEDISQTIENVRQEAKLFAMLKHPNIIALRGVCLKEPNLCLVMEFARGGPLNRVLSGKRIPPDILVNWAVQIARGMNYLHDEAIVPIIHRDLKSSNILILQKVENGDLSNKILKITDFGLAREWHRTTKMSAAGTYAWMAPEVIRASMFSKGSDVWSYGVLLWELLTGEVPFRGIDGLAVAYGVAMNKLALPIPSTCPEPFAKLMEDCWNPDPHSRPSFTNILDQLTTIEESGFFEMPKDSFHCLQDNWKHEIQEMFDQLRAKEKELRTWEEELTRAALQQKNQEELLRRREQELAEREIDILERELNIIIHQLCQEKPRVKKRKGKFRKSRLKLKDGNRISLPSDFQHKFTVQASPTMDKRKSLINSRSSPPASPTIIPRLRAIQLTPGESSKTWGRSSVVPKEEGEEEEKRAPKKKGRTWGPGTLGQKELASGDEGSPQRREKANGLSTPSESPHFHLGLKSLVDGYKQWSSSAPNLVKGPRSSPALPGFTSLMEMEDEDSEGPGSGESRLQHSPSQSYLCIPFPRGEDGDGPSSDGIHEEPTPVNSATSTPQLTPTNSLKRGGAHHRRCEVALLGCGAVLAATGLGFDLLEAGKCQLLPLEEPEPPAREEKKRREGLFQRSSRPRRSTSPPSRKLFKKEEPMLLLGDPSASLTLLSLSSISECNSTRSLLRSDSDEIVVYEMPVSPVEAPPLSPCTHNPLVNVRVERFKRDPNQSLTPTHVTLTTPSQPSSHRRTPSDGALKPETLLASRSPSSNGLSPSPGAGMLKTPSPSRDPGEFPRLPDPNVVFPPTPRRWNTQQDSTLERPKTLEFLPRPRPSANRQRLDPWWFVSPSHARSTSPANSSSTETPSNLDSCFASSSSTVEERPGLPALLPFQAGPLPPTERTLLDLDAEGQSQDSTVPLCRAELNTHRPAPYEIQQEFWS
"remaining binding at 10 µM ([5]; TGFBR1, 10 µM)","remaining binding at 10 µM ([7]; TNK2, 10 µM)",SMILES,remaining binding at 10 µM [1],remaining binding at 10 µM [2],remaining binding at 10 µM [3],remaining binding at 10 µM [4],"remaining binding at 10 µM ([5]; kinase TGFBR1, 10 µM)",remaining binding at 10 µM [6],"remaining binding at 10 µM ([7]; kinase TNK2, 10 µM)",remaining binding at 10 µM [8],remaining binding at 10 µM [9],remaining binding at 10 µM [10],remaining binding at 10 µM [11]
–,–,CCN1CCN(Cc2ccc(NC(=O)c3ccc(C)c(NC(=O)c4cncc(-c5cccs5)c4)c3)cc2C(F)(F)F)CC1 [ALW-II-41-27],6.4%,0.1%,0%,> 30%,> 30%,> 30%,2.1%,> 30%,17%,> 30%,> 30%
> 30%,0.5%,"CCN1CCN(Cc2ccc(NC(=O)c3ccc(C)c(/C=C/c4cnc5[nH]ccc5c4Cl)c3)cc2C(F)(F)F)CC1 [HG-6-63-01, (E)-3-(2-(4-chloro-1H-pyrrolo[2,3-b]pyridin-5-yl)vinyl)-N-(4-((4-ethylpiperazin-1-yl)methyl)-3-(trifluoromethyl)phenyl)-4-methylbenzamide]",0.3%,0.85%,0%,> 30%,–,0.6%,–,> 30%,> 30%,> 30%,0.65%
–,–,CCN1CCN(Cc2ccc(NC(=O)c3ccc(C)c(C#Cc4cccnc4)c3)cc2C(F)(F)F)CC1 [XMD15-44],3.3%,0.1%,0%,84%,100%,> 30%,11%,85%,3.2%,> 30%,13%
